# Assay results from patent US20250090597A1, “AIRWAY BASAL CELL ENGRAFTMENT METHODS” (TRUSTEES OF BOSTON UNIVERSITY, priority 2023, published 2025).
# Tests used:
# [1] = test system: tracheal airway epithelial cells; experiment: Post-polidocanol injury mouse tracheal histological time series; assay type: in vivo
# Description: Intra-tracheal delivery of polidocanol was employed to ablate tracheal airway epithelial cells (see e.g., FIG. 9A). […] Am J Resp Cell Mol 24, 662-670; Engler et al. (2020). Cell Reports 33, 108553; the contents of which are incorporated herein by reference in their entireties. It is contemplated herein that acute epithelial sloughing can generate a temporarily exposed niche on the airway basement membrane for exogenous cells to land. To determine the time window for BC transplantation post polidocanol-mediated injury, tracheal tissues were analyzed in a time series following injury. […] Therefore, donor cells were transplanted five hours post-injury.
# Adult recipient mice (8-16 weeks old) were used for all transplantation studies. Tracheal epithelial injury was induced in isoflurane anesthetized mice by intratracheal delivery of 20 μL of 2% polidocanol using the tongue pull method, followed by recovery prior to cell delivery 5-5.5 hours later. Specifically, the recipient animal was anesthetized with 3% isoflurane until the animal developed exaggerated respiratory movements at rates of 1-1.5 breath/second. Then the mouse was lightly restrained by operator, while a second operator delivered polidocanol solution directly into the posterior oropharynx of the mouse. The nose was gently held to encourage the animal to aspirate through the […], about 2-4 times, or until the liquid was no longer visible. For cell transplants, mice were re-anesthetized and 6×10^6 primary BCs or iBCs suspended in 20 μL of DMEM were intratracheally instilled as above.
# [2] = test system: tracheal airway epithelial cells; conditions: Borthwick et al. 2001; Engler et al. 2020; cited from earlier work
compound,measurement,setting,value
CCCCCCCCCCCCOCCOCCOCCOCCOCCOCCOCCOCCOCCO [polidocanol],tracheal epithelium state after polidocanol exposure,[1]; 12 hours after polidocanol exposure,patches of rounded or cuboidal epithelial cells characterized the regenerating epithelium
same,tracheal epithelial sloughing after polidocanol exposure,[1]; five hours after polidocanol exposure,epithelial sloughing was more complete with sporadic residual individual cells and more denuded basement membrane
same,tracheal epithelium state after polidocanol exposure,[1]; seven hours after polidocanol exposure,residual cells had flattened to cover the basement membrane
same,tracheal epithelial sloughing after polidocanol exposure,"[1]; three hours after polidocanol exposure, 20 μL of 2% polidocanol intratracheal, H&E",Extensive epithelial sloughing
same,time to tracheal epithelial sloughing after polidocanol exposure,[2],within three hours
